In US9200046B2, “Reporter system for high throughput screening of compounds and uses thereof” (priority 2011, dated 2015):
Where a name gives a salt, the structure may show the parent alone. Read-outs that look alike come from different tables or passages of the source.

Target: Nrf2-Keap1 complex (Homo sapiens, UniProt Q14145)
Assay: cell-based
Assay type: cell-based
Conditions: for activation at 16 µM / activation at 32 µM: 3 h; for activation at 16 µM: read-out: Activation 100 nL; for activation at 32 µM: read-out: Activation 200 nL
[1] = Table 2, 100 nL compound, screen run at 16 and 32 μM, 3 hr
[2] = Table 2, 200 nL compound, screen run at 16 and 32 μM, 3 hr

Sequence of Nrf2-Keap1 complex (Q14145 whole entry, one chain of several): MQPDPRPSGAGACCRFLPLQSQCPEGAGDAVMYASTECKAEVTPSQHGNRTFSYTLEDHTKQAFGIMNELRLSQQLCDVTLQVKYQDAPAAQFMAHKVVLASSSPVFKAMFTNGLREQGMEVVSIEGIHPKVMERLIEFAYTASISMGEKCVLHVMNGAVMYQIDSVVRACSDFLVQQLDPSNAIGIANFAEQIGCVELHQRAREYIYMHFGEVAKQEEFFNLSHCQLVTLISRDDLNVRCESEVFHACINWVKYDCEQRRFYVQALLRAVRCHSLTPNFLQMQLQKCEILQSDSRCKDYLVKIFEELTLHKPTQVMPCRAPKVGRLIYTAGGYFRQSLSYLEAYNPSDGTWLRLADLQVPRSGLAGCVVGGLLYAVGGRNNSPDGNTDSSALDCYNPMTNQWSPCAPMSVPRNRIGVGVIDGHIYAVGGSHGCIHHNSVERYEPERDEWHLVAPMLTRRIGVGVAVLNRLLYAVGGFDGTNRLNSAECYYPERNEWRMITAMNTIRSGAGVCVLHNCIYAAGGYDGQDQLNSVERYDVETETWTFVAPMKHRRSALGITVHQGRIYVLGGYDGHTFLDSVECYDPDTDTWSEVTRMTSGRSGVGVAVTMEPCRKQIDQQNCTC

Row | Compound | activation at 16 µM [%] | activation at 32 µM [%] | 100 nL (luminescence) [1] | 200 nL (luminescence) [2] | also measured
1 | CC(CCc1ccccc1)NC(C)C(O)c1ccc(O)cc1 (centres unmarked) [NYLIDRINHYDROCHLORIDE, reference compound] | 42 | 22 |  |  | 
2 | O=c1c(O)c(-c2ccccc2)oc2ccccc12 [3-Hydroxyflavone] |  |  |  |  | hit strength in the screen (words): modest Nrf2 activator
3 | COC(=O)[C@H](O)[C@H]1C(C)(C)[C@H](OC(C)=O)[C@@H]2CC3=C4CC(=O)O[C@@H](c5ccoc5)[C@]4(C)CC[C@@H]3[C@@]1(C)C2=O [SWIETENOLIDE-3-ACETATE] |  |  | 1430 | 2088 | Activation 100 nL: 70%; Activation 200 nL: 115%
4 | CC(C)=CCC[C@@H](C)[C@@H]1CC[C@]2(C)C3=C(CC[C@@]12C)[C@@]1(C)CC[C@H](O)C(C)(C)[C@@H]1CC3 [EUPHOL] | 138 | 74 | 1572 | 2064 | 
5 | CC(C)c1cc2c(c(O)c1O)[C@@]1(C(=O)O)CCCC(C)(C)[C@@H]1CC2 [CARNOSICACID] | 372 | 182 | 3620 | 4604 | 
6 | O=C(O)C(S)C(S)C(=O)O (centres unmarked) [2,3-DIMERCAPTOSUCCINICACID, reference compound] | 238 | 123 |  |  | 100 nL (luminescence): 4452; 200 nL (luminescence): 2760
7 | CC(C)=CCCC1(C)C=Cc2c(O)c3c(c(CC=C(C)C)c2O1)OC12C(=CCCC1C(C)(C)O[C@@]2(C/C=C(\C)C(=O)O)C(=O)O)C3=O (some centres unmarked) [GARCINOLICACID] | 29 | 33 | 800 | 832 | 
8 | C[C@]12CCC(=O)C=C1CCc1ccc(O)cc12 [12-HYDROXY-4,4-BISNOR-4,8,11,13-PODOCARPATETRAEN-3-ONE] |  |  | 592 | 768 | Activation 100 nL: 26%; Activation 200 nL: 18%
9 | METHYL7-DESHYDROXYPYROGALLIN-4-CARBOXYLATE |  |  | 4444 | 3792 | Activation 100 nL: 466%; Activation 200 nL: 147%
10 | CC1=CC(=O)[C@H]2C(C)(C)CCC[C@]2(C)[C@@]1(O)CCc1ccoc1 [SOLIDAGENONE] | 121 | 77 |  |  | 100 nL (luminescence) (Table 1A, 100 nL compound, screen run at 16 and 32 μM, 3 hr): 1976; 200 nL (luminescence) (Table 1A, 200 nL compound, screen run at 16 and 32 μM, 3 hr): 2220
11 | CNC(=O)CSP(=S)(OC)OC [DIMETHOATE] | 59 | 145 | 1148 | 3772 | 
12 | O=c1c(O)c(-c2ccc(O)cc2)oc2cc(O)cc(O)c12 [kaempferol, 3,5,7,4′-tetrahydroxyflavone] |  |  |  |  | fold less effective than quercetin and fisetin (flavone SAR): 2.5 fold
13 | CC(=O)O[C@H]1CC[C@]2(C)[C@H]3CC[C@@]4(C)[C@H](c5ccoc5)OC(=O)[C@H]5O[C@]54[C@]3(C)[C@H](OC(C)=O)C[C@H]2C1(C)C [3beta-ACETOXYDEOXODIHYDROGEDUNIN] |  |  | 924 | 972 | Activation 100 nL: 37%; Activation 200 nL: 42%
14 | CC(=O)Oc1cc(-c2coc3cc(OC(C)=O)c(OC(C)=O)c(OC(C)=O)c3c2=O)cc(OC(C)=O)c1OC(C)=O [IRIGINOLHEXAACEATATE] | 65 | 58 | 1350 | 1208 | 
15 | CC1(C)C2CC(=O)O[C@@]3(C)C4=CC(=O)O[C@@H](c5ccoc5)[C@]4(C)CCC3[C@@]2(C)C=C[C@H]1O (some centres unmarked) [DEOXYANDIROBINLACTONE] | 40 | 52 | 964 | 1124 | 
16 | COc1cc([C@@H]2c3cc4c(cc3[C@H](OC(C)=O)[C@H]3COC(=O)[C@H]23)OCO4)cc(OC)c1OC [PODOPHYLLOTOXINACETATE] |  |  | 900 | 668 | Activation 100 nL: 40%; Activation 200 nL: 10%
17 | COc1ccc2c(c1)OCc1c-2oc2cc(OC)ccc12 [DEHYDROVARIABILIN] | 86 | 39 | 1672 | 916 | 

Row | Compound | activation at 16 µM [%] | activation at 32 µM [%] | 100 nL (luminescence) [1] | 200 nL (luminescence) [2] | also measured
18 | O=C1c2ccccc2C(=O)c2c(O)c(O)cc(O)c21 [PURPURIN] | 54 | 41 | 1176 | 952 | 
19 | C[C@@H]1C(=O)O[C@H]2[C@H]1CC[C@@]1(C)C=CC(=O)[C@@]3(C)O[C@@]213 [EPOXY(4,5alpha)-4,5-DIHYDROSANTONIN] |  |  | 3828 | 3164 | Activation 100 nL: 227%; Activation 200 nL: 186%
20 | COc1ccc(/C=C/C(=O)c2ccc(O)cc2O)cc1OC [2′,4′-DIHYDROXY-3,4-DIMETHOXYCHALCONE] | 321 | 185 | 5876 | 3964 | 
21 | CNC(=O)Oc1cccc2c1OC(C)(C)O2 [BENDIOCARB] | 87 | 101 |  |  | 100 nL (luminescence): 1532; 200 nL (luminescence): 2760
22 | COC(=O)/C=C/C(C)=C\C=C\C(C)=C\C=C\C=C(C)\C=C\C=C(C)\C=C\C(=O)O [BIXIN] | 113 | 113 |  |  | 100 nL (luminescence): 1880; 200 nL (luminescence): 3036
23 | COc1cc(O)c(C(=O)/C=C/c2ccc(OC)c(O)c2)c(OC)c1 [2′,3-DIHYDROXY-4,4′,6′-TRIMETHOXYCHALCONE] | 296 | 10 | 5436 | 544 | 
24 | Oc1cc(O)c2c(c1)O[C@H](c1cc(O)c(O)c(O)c1)[C@H](O)C2 [EPIGALLOCATECHIN] | 33 | -20 | 864 | 28 | 
25 | CCCCC(CC)CNC(=N)NC(=N)NCCCCCCNC(=N)NC(=N)NCC(CC)CCCC (centres unmarked) [ALEXIDINEHYDROCHLORIDE] | 101 | -18 | 1900 | 52 | 
26 | O=C(/C=C/c1ccccc1)c1ccc(O)cc1O [2′,4′-DIHYDROXYCHALCONE] | 227 | 45 | 2352 | 1388 | 
27 | COc1cccc(O)c1O [3-METHOXYCATECHOL] | 28 | -15 | 736 | 116 | 
28 | COc1ccc(/C=C/C(=O)c2cc(O)ccc2O)cc1 [2′,5′-DIHYDROXY-4-METHOXYCHALCONE] | 322 | 20 | 3188 | 800 | 
29 | CC1(C)C(=O)C=C[C@]2(C)[C@H]3CC[C@@]4(C)[C@H](c5ccoc5)OC(=O)[C@H]5O[C@]54[C@]3(C)C=C[C@@H]12 [7-DESACETOXY-6,7-DEHYDROGEDUNIN] |  |  | 1660 | 188 | Activation 100 nL: 85%; Activation 200 nL: −9%
30 | O=C1OCCN1/N=C/c1ccc([N+](=O)[O-])o1 [FURAZOLIDONE, reference compound] | 43 | 45 |  |  | 100 nL (luminescence): 876; 200 nL (luminescence): 1288
31 | O=C1C=C2C=C[C@@H]3C[C@@]2(O1)[C@H]1CCCCN31 [SECURININE] | 84 | -14 | 2068 | 176 | 
32 | CCc1cccc(CC)c1N(COC)C(=O)CCl [ALACHLOR] | 261 | 194 | 3852 | 4892 | 
33 | O=c1c(-c2ccc(O)cc2)coc2cc(O)cc(O)c12 [GENISTEIN] | 106 | 93 | 1980 | 1748 | 
34 | CO/N=C(\C(=O)N[C@@H]1C(=O)N2C(C(=O)O)=C(COC(C)=O)CS[C@H]12)c1csc(N)n1 [CEFOTAXIMESODIUM, reference compound] | 50 | 7 | 968 | 488 | 
